Assay [1] deals with Homeodomain-interacting protein kinase 1 (Homo sapiens) (UniProt Q86Z02). In words: Inhibition of human HIPK1 at 18.6 nM by HotSpot assay relative to control.
Assay [2] addresses Serine/threonine-protein kinase N2 (Homo sapiens) (UniProt Q16513). Put plainly: Inhibition of human PRK2 at 18.6 nM by HotSpot assay relative to control.
Assay [3] addresses Ribosomal protein S6 kinase alpha-3 (Homo sapiens) (UniProt P51812). Put plainly: Inhibition of human RSK2 at 18.6 nM by HotSpot assay relative to control.
In assay [4] the target is T1, Serine/threonine-protein kinase BRSK2 (Homo sapiens) (UniProt Q8IWQ3).
T1 sequence (whole entry): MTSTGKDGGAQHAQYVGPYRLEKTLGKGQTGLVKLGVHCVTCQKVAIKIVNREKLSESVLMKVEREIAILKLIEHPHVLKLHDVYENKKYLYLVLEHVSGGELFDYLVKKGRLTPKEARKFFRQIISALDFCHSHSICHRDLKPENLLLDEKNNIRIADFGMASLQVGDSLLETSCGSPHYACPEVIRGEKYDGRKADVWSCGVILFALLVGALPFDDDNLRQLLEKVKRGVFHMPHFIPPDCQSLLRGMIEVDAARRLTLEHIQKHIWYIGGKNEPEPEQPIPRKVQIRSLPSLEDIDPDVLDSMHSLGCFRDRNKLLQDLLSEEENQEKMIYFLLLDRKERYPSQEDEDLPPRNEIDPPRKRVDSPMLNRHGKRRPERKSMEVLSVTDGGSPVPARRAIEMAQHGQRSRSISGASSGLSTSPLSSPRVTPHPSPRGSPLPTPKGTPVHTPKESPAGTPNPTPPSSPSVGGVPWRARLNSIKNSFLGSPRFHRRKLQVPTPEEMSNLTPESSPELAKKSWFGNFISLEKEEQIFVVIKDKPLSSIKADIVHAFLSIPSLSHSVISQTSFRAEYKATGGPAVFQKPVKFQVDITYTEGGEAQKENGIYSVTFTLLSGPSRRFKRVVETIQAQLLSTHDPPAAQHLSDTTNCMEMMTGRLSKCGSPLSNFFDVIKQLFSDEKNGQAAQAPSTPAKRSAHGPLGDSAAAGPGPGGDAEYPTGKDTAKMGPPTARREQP
Put plainly: Inhibition of human BRSK2 at 18.6 nM by HotSpot assay relative to control.

The target of assay [5] is Macrophage-stimulating protein receptor (Homo sapiens) (UniProt Q04912). Put plainly: Inhibition of human MST1R at 18.6 nM by HotSpot assay relative to control.
Assay [6] addresses T2, G protein-coupled receptor kinase 3 (Homo sapiens) (UniProt P35626).
T2 sequence (whole entry): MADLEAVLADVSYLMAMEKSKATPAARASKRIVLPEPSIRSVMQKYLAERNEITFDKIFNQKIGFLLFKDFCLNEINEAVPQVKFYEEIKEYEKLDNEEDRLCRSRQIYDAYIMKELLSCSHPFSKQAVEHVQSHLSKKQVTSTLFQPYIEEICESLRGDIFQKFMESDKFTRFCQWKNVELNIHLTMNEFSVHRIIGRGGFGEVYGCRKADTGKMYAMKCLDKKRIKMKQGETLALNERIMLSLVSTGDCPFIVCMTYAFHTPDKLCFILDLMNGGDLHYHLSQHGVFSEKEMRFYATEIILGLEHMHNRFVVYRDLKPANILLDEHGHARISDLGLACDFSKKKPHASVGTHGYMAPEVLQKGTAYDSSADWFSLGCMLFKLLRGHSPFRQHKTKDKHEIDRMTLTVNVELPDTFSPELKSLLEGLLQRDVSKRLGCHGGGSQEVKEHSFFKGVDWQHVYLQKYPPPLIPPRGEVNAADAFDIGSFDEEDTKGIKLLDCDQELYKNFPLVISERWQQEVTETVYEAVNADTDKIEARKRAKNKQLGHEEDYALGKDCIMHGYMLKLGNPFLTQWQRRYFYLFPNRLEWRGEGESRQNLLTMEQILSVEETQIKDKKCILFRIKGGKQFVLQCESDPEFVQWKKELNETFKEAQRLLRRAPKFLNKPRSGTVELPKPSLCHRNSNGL
In words: Inhibition of human GRK3 at 18.6 nM by HotSpot assay relative to control.

The target in assay [7] is Mitogen-activated protein kinase kinase kinase 8 (Homo sapiens) (UniProt P41279). In words: Inhibition of human COT1 at 1.82 nM by HotSpot assay relative to control.
In assay [8] the target is T3, Cytoplasmic tyrosine-protein kinase BMX (Homo sapiens) (UniProt P51813).
T3 sequence (whole entry): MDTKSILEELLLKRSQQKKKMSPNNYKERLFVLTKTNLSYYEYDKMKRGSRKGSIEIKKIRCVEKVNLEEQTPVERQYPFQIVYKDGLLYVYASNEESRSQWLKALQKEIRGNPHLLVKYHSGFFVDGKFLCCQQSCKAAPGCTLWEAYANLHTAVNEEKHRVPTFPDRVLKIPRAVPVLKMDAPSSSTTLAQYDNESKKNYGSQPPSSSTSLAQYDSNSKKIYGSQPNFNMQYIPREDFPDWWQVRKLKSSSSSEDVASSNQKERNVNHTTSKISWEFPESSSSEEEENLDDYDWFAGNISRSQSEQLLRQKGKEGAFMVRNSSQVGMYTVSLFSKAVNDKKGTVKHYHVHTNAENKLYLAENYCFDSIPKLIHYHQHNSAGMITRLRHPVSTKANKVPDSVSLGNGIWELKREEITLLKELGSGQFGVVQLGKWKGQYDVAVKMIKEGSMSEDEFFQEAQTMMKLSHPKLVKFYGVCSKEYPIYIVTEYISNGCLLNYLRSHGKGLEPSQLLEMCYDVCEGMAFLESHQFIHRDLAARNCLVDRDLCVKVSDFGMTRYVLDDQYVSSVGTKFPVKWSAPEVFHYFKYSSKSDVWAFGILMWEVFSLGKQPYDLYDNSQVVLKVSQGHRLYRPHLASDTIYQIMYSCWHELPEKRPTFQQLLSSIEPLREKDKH
In words: Inhibition of human BMX at 1.82 nM by HotSpot assay relative to control.

The target of assay [9] is G protein-coupled receptor kinase 5 (Homo sapiens) (UniProt P34947). In words: Inhibition of human GRK5 at 1.82 nM by HotSpot assay relative to control.
Chain of G protein-coupled receptor kinase 5 (Homo sapiens) (P34947 whole entry, looked up): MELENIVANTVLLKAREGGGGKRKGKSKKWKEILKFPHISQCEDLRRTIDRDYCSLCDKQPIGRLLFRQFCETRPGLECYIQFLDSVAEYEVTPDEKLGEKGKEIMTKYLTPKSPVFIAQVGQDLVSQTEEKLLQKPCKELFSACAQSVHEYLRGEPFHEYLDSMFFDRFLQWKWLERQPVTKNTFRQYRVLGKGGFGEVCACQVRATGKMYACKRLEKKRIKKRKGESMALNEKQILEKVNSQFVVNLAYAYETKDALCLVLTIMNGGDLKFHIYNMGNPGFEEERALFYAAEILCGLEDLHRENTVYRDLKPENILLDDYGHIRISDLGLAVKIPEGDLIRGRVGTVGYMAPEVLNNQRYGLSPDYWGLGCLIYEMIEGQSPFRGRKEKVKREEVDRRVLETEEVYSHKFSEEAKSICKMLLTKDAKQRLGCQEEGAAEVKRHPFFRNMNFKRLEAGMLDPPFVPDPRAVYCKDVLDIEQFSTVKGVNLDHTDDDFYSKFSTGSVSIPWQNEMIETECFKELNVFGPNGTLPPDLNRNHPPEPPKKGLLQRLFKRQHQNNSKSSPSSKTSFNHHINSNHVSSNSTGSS

Chain of Homeodomain-interacting protein kinase 1 (Homo sapiens) (Q86Z02 whole entry, looked up): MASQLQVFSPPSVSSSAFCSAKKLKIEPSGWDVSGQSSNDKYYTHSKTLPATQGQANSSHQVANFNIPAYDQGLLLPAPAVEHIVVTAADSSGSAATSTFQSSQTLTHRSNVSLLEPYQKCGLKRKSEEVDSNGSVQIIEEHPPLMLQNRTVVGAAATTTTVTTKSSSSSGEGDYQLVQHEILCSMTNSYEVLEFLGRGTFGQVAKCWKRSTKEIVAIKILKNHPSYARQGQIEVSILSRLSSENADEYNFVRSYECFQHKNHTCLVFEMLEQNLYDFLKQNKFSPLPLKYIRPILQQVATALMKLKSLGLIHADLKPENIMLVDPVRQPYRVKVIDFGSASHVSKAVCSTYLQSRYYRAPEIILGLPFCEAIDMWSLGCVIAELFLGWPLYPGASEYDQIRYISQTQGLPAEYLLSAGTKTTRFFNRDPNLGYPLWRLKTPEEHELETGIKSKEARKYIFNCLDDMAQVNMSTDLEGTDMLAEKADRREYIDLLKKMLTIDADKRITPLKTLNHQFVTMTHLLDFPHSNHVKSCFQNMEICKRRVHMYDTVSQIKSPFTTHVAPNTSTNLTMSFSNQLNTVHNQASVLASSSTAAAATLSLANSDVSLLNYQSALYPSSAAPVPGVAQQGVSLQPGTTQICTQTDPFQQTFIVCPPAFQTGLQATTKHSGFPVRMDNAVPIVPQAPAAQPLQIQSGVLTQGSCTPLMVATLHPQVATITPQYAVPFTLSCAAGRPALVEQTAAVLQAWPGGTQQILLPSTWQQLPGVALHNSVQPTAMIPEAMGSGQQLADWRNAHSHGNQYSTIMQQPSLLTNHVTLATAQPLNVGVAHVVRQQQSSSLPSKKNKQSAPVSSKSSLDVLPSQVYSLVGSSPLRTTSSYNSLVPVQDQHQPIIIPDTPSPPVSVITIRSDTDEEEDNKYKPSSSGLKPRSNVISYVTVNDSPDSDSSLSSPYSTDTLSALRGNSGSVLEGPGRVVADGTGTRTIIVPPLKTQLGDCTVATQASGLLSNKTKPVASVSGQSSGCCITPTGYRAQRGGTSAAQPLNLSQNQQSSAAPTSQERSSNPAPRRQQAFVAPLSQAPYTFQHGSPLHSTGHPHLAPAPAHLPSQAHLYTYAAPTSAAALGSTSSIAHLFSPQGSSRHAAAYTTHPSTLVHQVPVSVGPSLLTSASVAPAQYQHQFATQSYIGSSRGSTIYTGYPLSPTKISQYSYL
Chain of Mitogen-activated protein kinase kinase kinase 8 (Homo sapiens) (P41279 whole entry): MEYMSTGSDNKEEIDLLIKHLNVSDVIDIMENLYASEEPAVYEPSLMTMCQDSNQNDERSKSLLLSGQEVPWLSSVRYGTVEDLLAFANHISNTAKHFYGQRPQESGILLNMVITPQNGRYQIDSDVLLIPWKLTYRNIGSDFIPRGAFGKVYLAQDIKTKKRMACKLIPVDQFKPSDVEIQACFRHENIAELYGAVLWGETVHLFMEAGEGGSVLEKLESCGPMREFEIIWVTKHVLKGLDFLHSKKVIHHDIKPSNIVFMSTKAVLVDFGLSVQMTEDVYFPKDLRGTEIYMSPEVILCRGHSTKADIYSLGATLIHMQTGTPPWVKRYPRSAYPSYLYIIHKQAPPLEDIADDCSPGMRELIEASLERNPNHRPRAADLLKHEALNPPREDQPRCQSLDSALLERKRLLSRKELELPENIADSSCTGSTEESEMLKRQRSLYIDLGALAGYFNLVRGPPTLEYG
Chain of Serine/threonine-protein kinase N2 (Homo sapiens) (Q16513 whole entry, looked up): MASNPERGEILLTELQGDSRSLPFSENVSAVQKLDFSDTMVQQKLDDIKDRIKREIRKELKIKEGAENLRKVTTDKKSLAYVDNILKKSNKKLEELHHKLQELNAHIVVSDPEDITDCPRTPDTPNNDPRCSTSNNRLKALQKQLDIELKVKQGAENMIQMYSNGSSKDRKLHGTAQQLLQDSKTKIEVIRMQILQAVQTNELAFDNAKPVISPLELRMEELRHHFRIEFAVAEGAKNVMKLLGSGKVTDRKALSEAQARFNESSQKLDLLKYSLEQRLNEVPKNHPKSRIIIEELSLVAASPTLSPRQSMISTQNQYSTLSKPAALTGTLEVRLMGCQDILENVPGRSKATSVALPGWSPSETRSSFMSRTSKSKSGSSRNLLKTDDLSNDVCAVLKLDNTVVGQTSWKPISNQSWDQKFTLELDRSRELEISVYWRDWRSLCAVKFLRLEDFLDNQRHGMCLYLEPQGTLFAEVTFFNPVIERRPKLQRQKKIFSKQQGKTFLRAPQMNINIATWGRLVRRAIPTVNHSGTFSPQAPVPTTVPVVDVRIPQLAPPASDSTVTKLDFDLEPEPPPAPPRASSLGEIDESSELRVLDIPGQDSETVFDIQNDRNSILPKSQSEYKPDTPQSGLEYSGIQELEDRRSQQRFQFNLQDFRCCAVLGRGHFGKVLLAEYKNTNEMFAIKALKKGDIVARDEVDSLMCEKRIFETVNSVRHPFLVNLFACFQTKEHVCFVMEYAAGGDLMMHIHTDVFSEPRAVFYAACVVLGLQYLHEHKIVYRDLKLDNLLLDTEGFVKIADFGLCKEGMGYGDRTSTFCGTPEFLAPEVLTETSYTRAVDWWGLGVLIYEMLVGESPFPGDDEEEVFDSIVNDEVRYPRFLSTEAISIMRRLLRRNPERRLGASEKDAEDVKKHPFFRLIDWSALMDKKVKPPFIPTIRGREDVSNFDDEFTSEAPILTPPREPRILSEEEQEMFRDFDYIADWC
Chain of Ribosomal protein S6 kinase alpha-3 (Homo sapiens) (P51812 whole entry): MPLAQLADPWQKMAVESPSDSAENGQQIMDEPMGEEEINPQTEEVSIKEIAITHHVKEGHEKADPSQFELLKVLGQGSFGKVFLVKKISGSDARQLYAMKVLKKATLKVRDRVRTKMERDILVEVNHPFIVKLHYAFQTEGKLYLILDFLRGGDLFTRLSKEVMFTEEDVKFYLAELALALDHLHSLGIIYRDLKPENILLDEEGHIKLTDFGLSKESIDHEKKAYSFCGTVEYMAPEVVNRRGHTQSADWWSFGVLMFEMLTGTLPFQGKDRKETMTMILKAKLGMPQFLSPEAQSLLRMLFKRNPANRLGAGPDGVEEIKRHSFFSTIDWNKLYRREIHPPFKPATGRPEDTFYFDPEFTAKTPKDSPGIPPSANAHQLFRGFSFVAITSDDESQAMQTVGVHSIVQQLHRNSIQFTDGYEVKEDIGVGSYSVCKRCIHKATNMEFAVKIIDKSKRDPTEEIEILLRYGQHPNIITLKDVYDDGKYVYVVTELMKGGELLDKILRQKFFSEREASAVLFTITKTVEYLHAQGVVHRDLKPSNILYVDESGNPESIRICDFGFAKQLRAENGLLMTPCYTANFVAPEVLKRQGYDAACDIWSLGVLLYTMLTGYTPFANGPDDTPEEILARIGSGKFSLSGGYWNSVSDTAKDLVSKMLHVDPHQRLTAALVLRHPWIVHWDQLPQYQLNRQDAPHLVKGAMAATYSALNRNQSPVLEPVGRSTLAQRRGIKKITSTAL

Broadly, the inhibition is the relative decrease from the control value, in per cent. In the case of `C[C@]1(O)C[C@@H](c2nc(-c3ccc4ccc(-c5ccccc5)nc4c3)c3c(N)nccn32)C1`, the inhibition in assay [1] was -4.32%; in [2], 1.32%; in assay [3], 1.82%; in assay [4], -4.68%; in assay [5], 0.1%; in [6] it was -0.17%.
Regarding `C[C@@]1(C(=O)Nc2ccc(F)nc2)CCCN1c1nc(Nc2cc(C3CC3)n[nH]2)c2cccn2n1`, the inhibition in [7] is 10.7%; in assay [8], -1.37%; in assay [9], 1.88%.

For the origin of these results see ChEMBL document CHEMBL5653615 (J Biol Chem, 2013).
